# Measurements taken from patent publication US10273544B2, “Methods for predicting likelihood of responding to treatment” (Dana-Farber Cancer Institute, Inc., priority 2010, dated 2019).
# How the values were obtained:
# SLCO2B1-312Arg = target: T1, SLCO2B1-312Arg (Homo sapiens, UniProt O94956); assay: DHEAS uptake assay in LNCaP cells transfected with SLCO2B1-312Arg; details: read-out: best-fit Km for DHEAS uptake; SLCO2B1-312Arg variant, nonlinear regression
# T1 sequence (O94956 1-709 R312Q): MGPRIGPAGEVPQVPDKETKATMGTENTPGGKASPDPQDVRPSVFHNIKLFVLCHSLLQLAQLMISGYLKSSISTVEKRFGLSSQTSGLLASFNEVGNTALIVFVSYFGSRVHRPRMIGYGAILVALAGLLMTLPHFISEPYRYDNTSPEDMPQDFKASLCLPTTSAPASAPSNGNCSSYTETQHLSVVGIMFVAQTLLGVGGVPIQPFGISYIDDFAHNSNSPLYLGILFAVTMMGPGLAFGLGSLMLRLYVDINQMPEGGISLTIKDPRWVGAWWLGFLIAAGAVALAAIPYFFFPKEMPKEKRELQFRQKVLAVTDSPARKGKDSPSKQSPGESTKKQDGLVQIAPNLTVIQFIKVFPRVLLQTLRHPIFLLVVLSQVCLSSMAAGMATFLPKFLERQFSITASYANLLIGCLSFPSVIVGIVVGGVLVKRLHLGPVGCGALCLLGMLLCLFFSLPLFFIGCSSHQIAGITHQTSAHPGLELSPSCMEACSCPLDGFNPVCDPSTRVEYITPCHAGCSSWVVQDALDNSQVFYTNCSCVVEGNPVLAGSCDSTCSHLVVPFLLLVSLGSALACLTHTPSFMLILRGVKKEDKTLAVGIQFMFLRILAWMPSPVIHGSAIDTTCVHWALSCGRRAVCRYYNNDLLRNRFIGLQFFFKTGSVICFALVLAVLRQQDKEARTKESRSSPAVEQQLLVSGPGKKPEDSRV
# From the text: (§1) Two full-length SLCO2B1 cDNAs, SLCO2B1-312Gln (having a G at the position 935) and SLCO2B1-312Arg (having an A at position 935), were cloned into the pCMV6-XL4 vector (OriGene Technologies, Rockville, Md.). The SLCO2B1 935G>A nucleotide exchange was introduced into the cDNA using the QuikChange Site-Directed Mutagenesis kit (Stratagene, La Jolla, Calif.). Primers used for the mutagenesis were 5′-[…]-3′ (SEQ ID NO:1) and 5′-[…]-3′ (SEQ ID NO:2) (underlined sequences encode 312Arg).
# (§2) LNCaP cells were maintained in RPMI 1640 supplemented with 10% fetal bovine serum (FBS). Twenty-four hours before transfection, 2×10^5 cells were seeded in 12-well plates using Phenol-Red free RPMI 1640 supplemented with 10% charcoal-stripped FBS. LNCaP cells were transiently transfected with pCMV-SLCO2B1-312Gln, pCMV-SLCO2B1-312Arg, or pCMV6-XL4 empty vector using Lipofectamine^2000 according to the manufacturer's instructions.
# (§3) The enzyme immunoassay test is based on the competition that occurs between an unlabeled antigen (present in standards, control and samples) and an enzyme-labeled antigen (conjugate) for a limited number of antibody binding sites on the microwell plate. The sensitivity of the kit is 5 ng/ml.
# LNCaP cells [1] = assay: DHEAS uptake assay in LNCaP cells (mock transfected; transfected cells overall); type: cell-based
# Description: The sensitivity of the kit is 5 ng/ml. […] Samples were tested in triplicate.
# PSA = assay: AR mediated PSA expression by quantitative RT-PCR; type: cell-based
# Description: (§4) Total RNA was isolated from cells using TRIzol reagent (Invitrogen, Carlsbad, Calif.) and then converted to cDNA using High Capacity cDNA Reverse Transcription kit (Applied Biosystems, Foster City, Calif.). The expression levels of SLCO2B1 and GAPDH were measured using a standard TaqMan PCR kit protocol. Experiments were carried out in triplicate for each data point. Real-time PCR primers and probe sets were inventoried products of Applied Biosystem (Assay ID: Hs00200670_m1 and Hs02758991_g1).
# (§5) The expression levels of AR and PSA were measured using a standard TaqMan PCR kit protocol (Hs02576345_m1 and Hs00171172_m1) as described in Example 3.
# LNCaP cells [2] = assay: Cell proliferation, WST-1 assay, LNCaP; type: cell-based; details: 100 μM DHEAS, wild type LNCaP, androgen-depleted medium
# Description: Cell proliferation was determined using a WST-1 kit (Roche, Indianapolis, Ind.). […] Tetrazolium salt cell proliferation assay then was carried out at different days after transfection, following the manufacturer's instructions.
# SLCO2B1-312Gln = target: T2, SLCO2B1-312Gln (Homo sapiens, UniProt O94956, R312Q); assay: DHEAS uptake assay in LNCaP cells transfected with SLCO2B1-312Gln; details: read-out: best-fit Km for DHEAS uptake; SLCO2B1-312Gln variant, nonlinear regression
# T2 sequence (O94956 1-709 R312Q): T1 sequence (O94956 1-709 R312Q)
# From the text: as §1, §2, §3
# AR = AR expression by quantitative RT-PCR; type: cell-based; details: LNCaP and LAPC4 cell lines
# Description: as §4, §5
compound,measurement,setting,value
"C[C@]12CC[C@H](OS(=O)(=O)O)CC1=CC[C@@H]1[C@@H]2CC[C@]2(C)C(=O)CC[C@@H]12 [DHEAS, sulfated dehydroepiandrosterone]",Km,SLCO2B1-312Arg,13.7 µM
same,uptake of DHEAS,"LNCaP cells [1]; 100 μM DHEAS, pCMV6-XL4 vector (mock) transfected LNCaP cells",51.66±7.44 pmol/mg protein
same,incubation time at which DHEAS uptake reached maximum levels,"LNCaP cells [1]; 100 μM DHEAS, various transfected LNCaP cells",1 h
same,DHEAS concentration at which uptake saturation is reached,LNCaP cells [1]; SLCO2B1 variant transfected LNCaP cells,60 to 100 µM
same,"up-regulation of PSA expression, SLCO2B1-Gln cells compared to SLCO2B1-Arg cells","PSA; 100 μM DHEAS, LAPC-4 cells",1.48 fold
same,effect of increasing DHEAS level on PSA expression,PSA; wild type LNCaP and LAPC-4 cell lines and cells transfected with SLCO2B1,up-regulated PSA expression
same,increase of growth rate,LNCaP cells [2],about 1.4 fold
same,Km,SLCO2B1-312Gln,17.7 µM
same,effect of DHEAS exposure on AR mRNA levels,AR,increased AR mRNA levels
